Some test systems named below: MDA-N; HOP-62; SF-268; UACC-62; SK-MEL-5; T47D; SW-620; HL-60; K562; BT-549; EKVX; OVCAR-8; OVCAR-4; SF-539; HCT-15; NCI-H23; ACHN; SNB-19; NCI/ADR-RES; NCI-H226.
Test in all cases: NCI anticancer screen, dose series, 48 h

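How tested: cells in 96-well plates exposed to compound for 48 hours at five concentrations. GI50 = concentration required for 50% inhibition of growth.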 Active and inactive are the calls of the source. Rule as the data show it: active = GI50 up to about 1.1 µM and inactive = higher.

`N#CC1=C(N)OC2=C(CCCc3ccc([N+](=O)[O-])cc32)C1c1ccc(Cl)cc1` (stereo not given): the GI50 with MDA-N is 6.7 µM (inactive); in the assay on HOP-62 it was 19.7 µM (inactive); in the assay with SF-268, 8.43 µM (inactive); with UACC-62, 5.02 µM (inactive); in the assay with SK-MEL-5, 4.38 µM (inactive); with T47D it was 3.78 µM (inactive). The GI50 in the assay on SW-620 was 9.35 µM (inactive); with HL-60 it was 1.89 µM (inactive); in the assay with K562, 3.88 µM (inactive); in the assay on BT-549 it was 17.4 µM (inactive); with EKVX it was 4.43 µM (inactive); in the assay with OVCAR-8 it was 6.58 µM (inactive). Further, the GI50 is 3.3 µM (inactive) in the assay with OVCAR-4; 8.97 µM (inactive) in the assay with SF-539; 3.12 µM in the assay with HCT-15; 5.11 µM (inactive) in the assay with NCI-H23; 4.59 µM (inactive) in the assay on ACHN; 32.9 µM (inactive) in the assay with SNB-19. Also, the GI50 in the assay on NCI/ADR-RES was 6.28 µM (inactive); in the assay with NCI-H226, 17 µM (inactive).
With `COc1cccc(-c2ccc3c4c2O[C@H]2C(=O)CC[C@@]5(O)[C@@H](C3)N(CC3CC3)CC[C@]425)c1`, the GI50 is 18.9 µM (inactive) with MDA-N; 19.5 µM (inactive) in the assay with HOP-62; 20.8 µM (inactive) in the assay with SF-268; 17.1 µM (inactive) in the assay with UACC-62; 14.8 µM (inactive) with SK-MEL-5; 18.4 µM (inactive) with T47D. In addition, the GI50 with SW-620 is 12.2 µM (inactive); in the assay with HL-60, 19.1 µM (inactive); in the assay with K562, 13.5 µM (inactive); in the assay on BT-549, 18.4 µM (inactive); with EKVX, 17.1 µM (inactive); in the assay on OVCAR-8, 18.5 µM (inactive). The GI50 in the assay on OVCAR-4 is 15.1 µM (inactive); in the assay with SF-539, 14.7 µM (inactive); in the assay with HCT-15 it was 13.6 µM; in the assay with NCI-H23, 24.9 µM (inactive); in the assay on ACHN it was 18.1 µM (inactive); in the assay with SNB-19, 20.7 µM (inactive). For the same compound, the values for the GI50 with NCI/ADR-RES and with NCI-H226 were 19.4 µM (inactive) and 11.6 µM (inactive), respectively.
Regarding `Cc1nc2ccccc2c(=O)n1NC(=S)Nc1ccc(Cl)cc1[N+](=O)[O-]`, the GI50 with MDA-N, in the assay on HOP-62, in the assay with SF-268, in the assay on UACC-62, in the assay with SK-MEL-5 and with T47D was > 100 µM (inactive) in each case. Besides, the GI50 in the assay with SW-620 was > 100 µM (inactive); with HL-60, > 100 µM (inactive); with K562, > 100 µM (inactive); in the assay on BT-549 it was > 100 µM (inactive); in the assay with EKVX, 36.2 µM (inactive); in the assay with OVCAR-8, > 100 µM (inactive). Also, the GI50 was > 100 µM (inactive) with OVCAR-4; > 100 µM (inactive) with SF-539; more than 100 µM in the assay with HCT-15; > 100 µM (inactive) in the assay on NCI-H23; > 100 µM (inactive) in the assay on ACHN; > 72.8 µM (inactive) in the assay with SNB-19. For the same compound, the GI50 in the assay on NCI/ADR-RES is > 100 µM (inactive); in the assay with NCI-H226, > 10 µM (inactive).
Regarding `Cc1nc(N)sc1C(=O)Nc1nc[nH]n1`, the GI50 in the assay on MDA-N, with HOP-62, in the assay on SF-268, in the assay with UACC-62, with SK-MEL-5 and in the assay with T47D was > 100 µM (inactive) in each case. Also, the GI50 in the assay on SW-620 is > 100 µM (inactive); in the assay on HL-60 it was 13.3 µM (inactive); with K562, > 100 µM (inactive); in the assay with BT-549 it was > 100 µM (inactive); in the assay on EKVX, > 100 µM (inactive); with OVCAR-8, > 100 µM (inactive). Also, the GI50 in the assay with OVCAR-4 is > 100 µM (inactive); in the assay on SF-539 it was > 100 µM (inactive); in the assay with HCT-15 it was more than 100 µM; in the assay on NCI-H23, > 100 µM (inactive); with ACHN, > 100 µM (inactive); in the assay with SNB-19, > 100 µM (inactive). Besides, the GI50 in the assay with NCI/ADR-RES and in the assay on NCI-H226 was > 100 µM (inactive) in each case.

Source of the values: ChEMBL document CHEMBL1201862, “PubChem BioAssay data set” (2004).
